Test results: ChEMBL document CHEMBL4052762, “Synthesis and biological evaluation of pyrrole-based chalcones as CYP1 enzyme inhibitors, for possible prevention of cancer and overcoming cisplatin resistance” (Bioorg Med Chem Lett, 2017); call rule not given here

Legend:
Homo sapiens [1] = organism: Homo sapiens; test: Selectivity ratio of IC50 for human CYP2C19 bound to yeast microsomal membrane to IC50 for human CYP1B1 bound to yeast microsomal membrane
Homo sapiens [2] = organism: Homo sapiens; test: Selectivity ratio of IC50 for human CYP2C19 bound to yeast microsomal membrane to IC50 for human CYP1A1 bound to yeast microsomal membrane
Homo sapiens [3] = organism: Homo sapiens; test: Selectivity ratio of IC50 for human CYP2C9 bound to yeast microsomal membrane to IC50 for human CYP1A1 bound to yeast microsomal membrane
Cytochrome P450 1A1 = target: T1, Cytochrome P450 1A1 (Homo sapiens, UniProt P04798); test: Inhibition of human CYP1A1 transfected in HEK293 cells assessed as protection against CYP1A1 mediated B[a]P toxicity at 20 uM by MTT assay; assay type: cell-based; conditions: hek293, 20 µM
T1 sequence (P04798 whole entry): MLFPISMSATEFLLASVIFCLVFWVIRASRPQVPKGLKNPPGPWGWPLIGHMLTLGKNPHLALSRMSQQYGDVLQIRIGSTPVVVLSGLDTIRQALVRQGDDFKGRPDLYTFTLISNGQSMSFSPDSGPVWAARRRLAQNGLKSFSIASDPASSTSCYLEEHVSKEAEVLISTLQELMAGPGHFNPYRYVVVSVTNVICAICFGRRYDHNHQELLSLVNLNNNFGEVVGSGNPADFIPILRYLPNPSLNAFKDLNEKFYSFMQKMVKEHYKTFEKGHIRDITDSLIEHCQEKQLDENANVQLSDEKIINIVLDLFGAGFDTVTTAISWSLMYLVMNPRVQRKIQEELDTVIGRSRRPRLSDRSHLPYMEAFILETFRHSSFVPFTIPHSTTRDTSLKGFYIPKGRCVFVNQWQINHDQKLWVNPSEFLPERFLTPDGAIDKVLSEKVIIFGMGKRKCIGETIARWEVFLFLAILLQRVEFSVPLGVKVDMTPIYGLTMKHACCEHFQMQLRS

Homo sapiens [4] = organism: Homo sapiens; test: Selectivity ratio of IC50 for human CYP2D6 bound to yeast microsomal membrane to IC50 for human CYP1A1 bound to yeast microsomal membrane
[5] = Selectivity ratio of IC50 for human CYP3A4 expressed in HEK293 cells to IC50 for human CYP1A1 expressed in HEK293 cells
Homo sapiens [6] = organism: Homo sapiens; test: Selectivity ratio of IC50 for human CYP3A4 bound to yeast microsomal membrane to IC50 for human CYP1A1 bound to yeast microsomal membrane
Homo sapiens [7] = organism: Homo sapiens; test: Selectivity ratio of IC50 for human CYP2D6 bound to yeast microsomal membrane to IC50 for human CYP1A2 bound to yeast microsomal membrane
[8] = Selectivity ratio of IC50 for human CYP2C9 expressed in HEK293 cells to IC50 for human CYP1A2 expressed in HEK293 cells
[9] = target: T2, Aryl hydrocarbon receptor (Homo sapiens, UniProt P35869); test: Antagonist activity at human AhR expressed in Saccharomyces cerevisiae W303-1A (ATCC 208352) transformed with an episomal plasmid containing a minimal CYC1 promoter, with a concatemer of five XRE enhancer sequences, linked to eGFP reporter gene and co-expressing ARNT assessed as inhibition of B[a]P agonist induced XRE-driven eGFP expression after 18 hrs by fluorescence assay; conditions: for inhibition (INH): human, 18 h
T2 sequence (P35869 whole entry): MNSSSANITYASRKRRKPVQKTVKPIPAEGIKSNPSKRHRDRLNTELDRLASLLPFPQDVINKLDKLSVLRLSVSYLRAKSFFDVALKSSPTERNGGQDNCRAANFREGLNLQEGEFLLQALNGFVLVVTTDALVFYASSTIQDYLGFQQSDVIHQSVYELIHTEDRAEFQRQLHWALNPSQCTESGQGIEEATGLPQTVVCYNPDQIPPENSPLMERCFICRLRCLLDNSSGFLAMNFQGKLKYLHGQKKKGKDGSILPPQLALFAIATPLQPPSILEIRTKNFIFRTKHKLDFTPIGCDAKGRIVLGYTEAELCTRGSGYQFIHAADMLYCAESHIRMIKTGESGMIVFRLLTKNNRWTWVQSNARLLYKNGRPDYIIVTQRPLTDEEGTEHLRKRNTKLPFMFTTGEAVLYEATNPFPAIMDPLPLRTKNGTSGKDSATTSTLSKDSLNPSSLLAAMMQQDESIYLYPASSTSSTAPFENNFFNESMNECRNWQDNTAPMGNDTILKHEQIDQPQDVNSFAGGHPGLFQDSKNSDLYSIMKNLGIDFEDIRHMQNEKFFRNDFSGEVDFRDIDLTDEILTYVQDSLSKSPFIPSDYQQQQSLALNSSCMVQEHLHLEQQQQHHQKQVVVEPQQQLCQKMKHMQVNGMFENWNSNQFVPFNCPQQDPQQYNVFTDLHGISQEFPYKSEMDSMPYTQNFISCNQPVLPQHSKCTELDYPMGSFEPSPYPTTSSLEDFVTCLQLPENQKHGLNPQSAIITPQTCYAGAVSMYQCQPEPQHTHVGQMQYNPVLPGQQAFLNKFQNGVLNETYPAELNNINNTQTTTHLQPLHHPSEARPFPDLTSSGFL

[10] = Selectivity ratio of IC50 for human CYP3A4 expressed in HEK293 cells to IC50 for human CYP1A2 expressed in HEK293 cells
Homo sapiens [11] = organism: Homo sapiens; test: Selectivity ratio of IC50 for human CYP2C19 bound to yeast microsomal membrane to IC50 for human CYP1A2 bound to yeast microsomal membrane
Homo sapiens [12] = organism: Homo sapiens; test: Selectivity ratio of IC50 for human CYP3A4 bound to yeast microsomal membrane to IC50 for human CYP1A2 bound to yeast microsomal membrane
Homo sapiens [13] = organism: Homo sapiens; test: Selectivity ratio of IC50 for human CYP3A4 bound to yeast microsomal membrane to IC50 for human CYP1B1 bound to yeast microsomal membrane
[14] = Selectivity ratio of IC50 for human CYP2C9 expressed in HEK293 cells to IC50 for human CYP1A1 expressed in HEK293 cells
[15] = Selectivity ratio of IC50 for human CYP2C9 expressed in HEK293 cells to IC50 for human CYP1B1 expressed in HEK293 cells
[16] = Selectivity ratio of IC50 for human CYP3A4 expressed in HEK293 cells to IC50 for human CYP1B1 expressed in HEK293 cells
Homo sapiens [17] = organism: Homo sapiens; test: Selectivity ratio of IC50 for human CYP2D6 bound to yeast microsomal membrane to IC50 for human CYP1B1 bound to yeast microsomal membrane
[18] = Selectivity ratio of IC50 for human CYP2D6 expressed in HEK293 cells to IC50 for human CYP1B1 expressed in HEK293 cells

IC50 [9] [µM] | inhibition (INH) [9] | Compound | Ratio IC50 (Homo sapiens [1]) | Ratio IC50 (Homo sapiens [2]) | Ratio IC50 (Homo sapiens [3]) | inhibition (INH) (Cytochrome P450 1A1) | Ratio IC50 (Homo sapiens [4]) | Ratio IC50 [5] | Ratio IC50 (Homo sapiens [6]) | Ratio IC50 (Homo sapiens [7]) | Ratio IC50 [8] | Ratio IC50 [10] | Ratio IC50 (Homo sapiens [11]) | Ratio IC50 (Homo sapiens [12]) | Ratio IC50 (Homo sapiens [13]) | Ratio IC50 [14] | Ratio IC50 [15] | Ratio IC50 [16] | Ratio IC50 (Homo sapiens [17]) | Ratio IC50 [18]
7.6 | Dose-dependent effect | O=C(/C=C/c1ccccc1Cl)c1ccc[nH]1 | > 20 | > 20 | > 20 | Not Active | > 20 | >20 | > 20 | > 20 | >20 | >20 | > 20 | > 20 | > 20 | >20 | >20 | >20 | > 20 | >20
1.5 | Dose-dependent effect | COc1ccccc1/C=C/C(=O)c1ccc[nH]1 | > 20 | > 20 | > 20 |  | > 20 | >20 | > 20 | > 20 | >20 | >20 | > 20 | > 20 | > 20 | >20 | >20 | >20 | > 20 | >20
 |  | O=C(/C=C/c1ccc(OC(F)(F)F)cc1)c1ccc[nH]1 |  |  |  | Not Active |  |  |  |  |  |  |  |  |  |  |  |  |  | 
